Counter-ions that a name gives are not always drawn.
Key:
physchem = assay type: physicochemical
Experimental: The salts of the present invention are particularly stable even at substantially higher temperatures than the room temperature: an analysis of their thermal stability versus time has, in fact, shown an unlimited stability of these compounds, when maintained in solid phase at 45° C. However, at 75° C., differentiated behaviors of the various salts prepared are observed with respect to one another.

[1] = Description: The liquors are removed by simple decantation and the precipitate is washed twice with 10 l of distilled H2 O while keeping the system under strong stirring.
[2] = assay type: physicochemical
[3] = Hygroscopicity of the lyophilized or dried solid; assay type: physicochemical
[4] = test system: transmethylation reactions; details: cited from earlier work
edema = details: carrageenin and white-of-egg acute edema; adjuvant arthritis; cited from earlier work
pain from myotasis = details: in vivo; cited from earlier work
steatosis = details: diet; alcohol, carbon tetrachloride, bromobenzene; cited from earlier work
cholestasis = details: in vivo; cited from earlier work
[5] = test system: osteoarthritis, Parkinson's disease, disorder of sleep, depression, atherosclerosis; details: cited from earlier work
H ribonuclease = details: cited from earlier work
[6] = test system: methylene tetrahydrofolic reductase; details: cited from earlier work
[7] = test system: ethanolamianephosphate cytidyltransferase; details: cited from earlier work

C[S+](CC[C@H](N)C(=O)O)C[C@H]1O[C@@H](n2cnc3c(N)ncnc32)[C@H](O)[C@@H]1O (stereo partly drawn) [Example 7]
thermal stability at 75° C. versus SAM chloride and the double salt SAM^+.HSO4^-.H2 SO4.2CH3 C6 H4 SO3 H (physchem): higher stability

C[S+](CC[C@H](N)C(=O)O)C[C@H]1O[C@@H](n2cnc3c(N)ncnc32)[C@H](O)[C@@H]1O (stereo partly drawn) [Example 4]
half-life time at 75° C. (physchem): more than one | stability of the salt at 45° C. (physchem): unlimited | thermal stability at 75° C. versus SAM chloride and the double salt SAM^+.HSO4^-.H2 SO4.2CH3 C6 H4 SO3 H (physchem): higher stability | solubilization at pH >4 [1]: solubilizes rapidly | residual acidity [2]: negligible | hygroscopicity [3]: nonhygroscopic

Nc1ncnc2c1ncn2[C@@H]1O[C@H](CSCC[C@H](N)C(=O)O)[C@@H](O)[C@H]1O [SAH, S-adenosyl-homocysteine]
inhibition of transmethylation reactions [4]: powerful inhibitor

C[S+](CC[C@H](N)C(=O)O)C[C@H]1O[C@@H](n2cnc3c(N)ncnc32)[C@H](O)[C@@H]1O (stereo partly drawn) [Example 2]
solubilisation time / rate at pH >4 relative to Example 1 [1]: increase in solubilisation times | hygroscopicity [3]: nonhygroscopic

C[S+](CC[C@H](N)C(=O)O)C[C@H]1O[C@@H](n2cnc3c(N)ncnc32)[C@H](O)[C@@H]1O (stereo partly drawn) [Example 3]
thermal stability at 75° C. versus SAM chloride and the double salt SAM^+.HSO4^-.H2 SO4.2CH3 C6 H4 SO3 H (physchem): higher stability | solubilisation time / rate at pH >4 relative to Example 1 [1]: slower rate of solubilization | hygroscopicity [3]: nonhygroscopic

C[S@@+](CC[C@H](N)C(=O)O)C[C@H]1O[C@@H](n2cnc3c(N)ncnc32)[C@H](O)[C@@H]1O [SAM, 5'-[[(3S)-3-amino-3-carboxy-propyl]methyl-(S)-sulfone]-5'-deoxyadenosine]
anti-inflammatory effect (edema): ANTI-INFLAMMATORY | analgesic effect (pain from myotasis): ANALGESIC | hepatoprotective effect (steatosis): HEPATOPROTECTIVE | bile fluidifying effect (cholestasis): BILE FLUIDIFYING | clinical effect: akinesia and rigidity ([5]; Parkinson's disease): IMPROVES AKINESIA | effect on the action of levodopa ([5]; Parkinson's disease): ENHANCING | clinical effect: psycho-affective sphere ([5]; atherosclerosis): IMPROVES | effect on sleep ([5]; disorder of sleep mechanism or of waking-sleeping rhythm): SLEEP INDUCING | antidepressant effect ([5]; in vivo): ANTIDEPRESSANT | clinical effect: (depressive) symptomatology ([5]; in vivo): REDUCES OR RESOLVES | clinical effect: muscular spasms ([5]; osteoarthritis): improves | inhibition of H ribonuclease (H ribonuclease): inhibitor | inactivation of H ribonuclease (H ribonuclease; from calf thymus gland): irreversible inactivation | inhibition of methylene tetrahydrofolic reductase [6]: inhibitor | inhibition of ethanolaminephosphate cytidyltransferase [7]: inhibitor

C[S+](CC[C@H](N)C(=O)O)C[C@H]1O[C@@H](n2cnc3c(N)ncnc32)[C@H](O)[C@@H]1O (stereo partly drawn) [Example 5]
stability of the salt at 45° C. (physchem): unlimited | thermal stability at 75° C. versus SAM chloride and the double salt SAM^+.HSO4^-.H2 SO4.2CH3 C6 H4 SO3 H (physchem): higher stability | half-life (physchem; solid phase, half-life time at 75° C.): > 240 h | solubilization at pH 7 ([1]; pH 7): rapidly solubilized | residual acidity [2]: negligible | hygroscopicity [3]: nonhygroscopic

C[S+](CCCN)C[C@H]1O[C@@H](n2cnc3c(N)ncnc32)[C@H](O)[C@@H]1O (stereo partly drawn) [deca-SAM, S-adenosyl-(5')-3-methylthiopropylamine]
inhibition of transmethylation reactions [4]: inhibitor

C[S+](CC[C@H](N)C(=O)O)C[C@H]1O[C@@H](n2cnc3c(N)ncnc32)[C@H](O)[C@@H]1O (stereo partly drawn) [Example 1, salt of SAM with the polyparastyrene sulfonate]
stability of the salt at 45° C. (physchem): unlimited | thermal stability at 75° C. versus SAM chloride and the double salt SAM^+.HSO4^-.H2 SO4.2CH3 C6 H4 SO3 H (physchem): higher stability

C[S+](CC[C@H](N)C(=O)O)C[C@H]1O[C@@H](n2cnc3c(N)ncnc32)[C@H](O)[C@@H]1O (stereo partly drawn) [Example 9]
stability of the salt at 45° C. (physchem): unlimited | thermal stability at 75° C. versus SAM chloride and the double salt SAM^+.HSO4^-.H2 SO4.2CH3 C6 H4 SO3 H (physchem): higher stability | solubilization at pH 6 ([1]; pH 6): solubilizes rapidly | residual acidity [2]: negligible | hygroscopicity [3]: nonhygroscopic

Source: US4764603A, “Stable salts of S-adenosyl-L-methionine with polyanions” (priority 1985, dated 1988)
